# Data taken from patent US20120142623A1, “Compositions And Methods For Predicting Inhibitors Of Protein Targets” (priority 2006, published 2012).
# Values joined by “and” are separate entries in the source; they are usually repeats but may differ in a detail not shown here. Equal entries are not always repeated. Where two headings read alike, the source gives them in different places.
# What was measured:
# P. falciparum = conditions: Table 3 section B, high throughput screen [27, 28], cited from earlier work; for EC50: read-out: ED50 in 3D7
# [1] = test system: chloroquine-resistant strain K1 of P. falciparum; assay: P. falciparum growth inhibition in culture, strain K1; assay type: cell-based, Plasmodium falciparum
# [2] = test system: chloroquine-sensitive strain 3D7 of P. falciparum; assay: P. falciparum growth inhibition in culture, strain 3D7; assay type: cell-based, Plasmodium falciparum; conditions: for result of the 16 tested inhibitors in words (binding): summary of Table 5
# Tat = Tat (Human immunodeficiency virus type 1 group M subtype B, UniProt P04608); conditions: HIV-1 target Tat; read-out: Inhibitory effect (uM), IC50, Tat; cited from earlier work
# KSHV protease = KSHV protease (Human herpesvirus 8 type P, UniProt Q2HRB6); assay: Surface Plasmon Resonance, KSHV protease; assay type: binding; set-up: herpes simplex virus (HSV) proteases (including HSV2, VZV, EBV, CMV, and KSHV); conditions: SPR, FIG. 4
# Protocol: (§1) Four inhibitors were evaluated; our top ranking one (TMPyP4) clearly binds to all three proteases as predicted. […] A third inhibitor, GW8510, predicted to bind fails (i.e., a misprediction). […] Our inhibitor prediction is completely consistent with the observed experimental data which is verified further by cell culture studies in FIG. 4 and compared to existing antiherpes drugs.
# HSV protease = assay: Surface Plasmon Resonance, HSV protease; assay type: binding; conditions: SPR, FIG. 4
# Protocol: as §1
# CMV protease = CMV protease (Human cytomegalovirus, UniProt P16753); assay: Surface Plasmon Resonance, CMV protease; assay type: binding; set-up: herpes simplex virus (HSV) proteases (including HSV2, VZV, EBV, CMV, and KSHV); conditions: SPR, FIG. 4
# Protocol: as §1
# Integrase = Integrase (Human immunodeficiency virus type 1 group M subtype B, UniProt P04585); conditions: HIV-1 target Integrase; read-out: Inhibitory effect (uM), IC50, Integrase; cited from earlier work
# [3] = test system: HIV-1 gp41 HR1 wild-type and mutants; conditions: cited from earlier work
# HSV-1 strain F = assay: HSV-1 infection of Vero cells, virus titer; assay type: cell-based; conditions: FIG. 5 bottom right panel; virus not named
# [4] = Plasmodium falciparum, K1, Table 3 section A, mean of at least two measurements, read-out: ED50 in K1
# [5] = Plasmodium falciparum, K1, Table 5, read-out: ED50 (μM) in K1
# [6] = Plasmodium falciparum, 3D7, Table 3 section A, mean of at least two measurements, read-out: ED50 in 3D7
# [7] = Plasmodium falciparum, 3D7, Table 5, read-out: ED50 (μM) in 3D7
# [8] = Table 5, P. falciparum ED50 in 3D7 and K1
# [9] = Table 3 section A, mean of at least two measurements, read-out: ED50 in K1
# [10] = Table 5, read-out: ED50 (μM) in K1
# [11] = Table 3 section A, mean of at least two measurements, read-out: ED50 in 3D7
# [12] = Table 5, read-out: ED50 (μM) in 3D7
molecule,measurement,setting,value
Cc1nc2n(c(=O)c1CCN1CCC(c3noc4cc(F)ccc34)CC1)CCCC2 [Risperidone],% Inhibition at 10 μM in,P. falciparum,67.5%
"C=CC1=C(C)c2cc3[nH]c(cc4nc(cc5[nH]c(cc1n2)c(C)c5CCC(=O)O)C(CCC(=O)O)=C4C)c(C)c3C=C [Protoporphrin, Protoporphyrin IX]",EC50,[1]; [4],10 to 40 µM
same,EC50,[1]; [5],10 to 40 µM
same,EC50,[2]; [6],10 to 40 µM
same,EC50,[2]; [7],10 to 40 µM
same,experimentally determined to work,[2]; [8],N
COc1cc(/C=C/C(=O)CC(=O)/C=C/c2ccc(O)c(OC)c2)ccc1O [Curcumin],IC50,Tat,< 30 µM
"Cc1ccc(NC(=O)c2ccc(CN3CCN(C)CC3)cc2)cc1Nc1nccc(-c2cccnc2)n1 [STI-571, Imatinib]",result of the 16 tested inhibitors in words (binding),[2],moderate binding
CC[C@H](CO)Nc1nc(NCc2ccccc2)c2ncn(C(C)C)c2n1 [Roscovitine],experimentally determined to work,[2]; [8],N
C[C@]12C=CC(=O)C=C1CC[C@@H]1C2=CC[C@]2(C)[C@@H](C(=O)CN3CCN(c4cc(N5CCCC5)nc(N5CCCC5)n4)CC3)CC[C@@H]12.O=C(O)/C=C\C(=O)O [U-74389G],EC50,[1]; [9],< 1 µM
same,EC50,[1]; [10],< 1 µM
same,EC50,[2]; [11],0.83 µM
same,experimentally determined to work,[2]; [8],Y (Y—yes (<=1uM ED50))
same,EC50,[2]; [12],0.825 µM
same,result of the 16 tested inhibitors in words (binding),[2],very strong binding
CN1CCCC1CCn1cc(C2=C(c3c[nH]c4ccccc34)C(=O)NC2=O)c2ccccc21 (stereo not drawn) [Bisindolylmaleimide II],EC50,[1]; [9],1 to 10 µM
same,EC50,[1]; [10],1 to 10 µM
same,EC50,[2]; [11],1 to 10 µM
same,experimentally determined to work,[2]; [8],N
same,EC50,[2]; [12],1 to 10 µM
CN([C@@H](Cc1ccc(OS(=O)(=O)c2cccc3cnccc23)cc1)C(=O)N1CCN(c2ccccc2)CC1)S(=O)(=O)c1cccc2cnccc12 [KN62],EC50,[1]; [9],< 1 µM
same,EC50,[1]; [10],< 1 µM
same,EC50,[2]; [11],0.69 µM
same,experimentally determined to work,[2]; [8],Y (Y—yes (<=1uM ED50))
same,EC50,[2]; [12],0.69 µM
same,result of the 16 tested inhibitors in words (binding),[2],very strong binding
CN1C[C@H](C(=O)N[C@]2(C)O[C@@]3(O)[C@@H]4CCCN4C(=O)[C@H](Cc4ccccc4)N3C2=O)C[C@@H]2c3cccc4[nH]cc(c34)C[C@H]21 [Dihydroergotamine],% Inhibition at 10 μM in,P. falciparum,88.1%
same,EC50,P. falciparum,4 µM and 3 µM
O=C1Nc2ccc3ncsc3c2/C1=C/Nc1ccc(S(=O)(=O)Nc2ccccn2)cc1 [GW8510],EC50,[1]; [9],1 µM
same,EC50,[1]; [10],1 µM
same,"disassociation constant (Kd), KSHV protease",KSHV protease,fails
same,"disassociation constant (Kd), HSV protease",HSV protease,fails
same,"disassociation constant (Kd), CMV protease",CMV protease,fails
same,EC50,[2]; [11],1 to 10 µM
same,experimentally determined to work,[2]; [8],N
same,EC50,[2]; [12],1 to 10 µM
CC[C@@]1(O)C(=O)OCc2c1cc1n(c2=O)Cc2cc3c(CN(C)C)c(O)ccc3nc2-1 [Topotecan],% Inhibition at 10 μM in,P. falciparum,80.1%
CCN(CCO)CCCC(C)Nc1ccnc2cc(Cl)ccc12 (stereo not drawn) [Hydroxychloroquine],IC50,Integrase,> 100 µM
COc1cccc2c1C(=O)c1c(O)c3c(c(O)c1C2=O)C[C@@](O)(C(=O)CO)C[C@@H]3O[C@H]1C[C@H](N)[C@@H](O)[C@H](C)O1 [Epirubicin],% Inhibition at 10 μM in,P. falciparum,98.4%
CC1(C)S[C@@H]2[C@H](NC(=O)[C@H](NC(=O)N3CCNC3=O)c3ccccc3)C(=O)N2[C@H]1C(=O)O [Azlocillin],EC50,P. falciparum,1.5 µM
COc1cccc2c1C(=O)c1c(O)c3c(c(O)c1C2=O)C[C@@](O)(C(C)=O)C[C@@H]3O[C@H]1C[C@H](N)[C@H](O)[C@H](C)O1 [Daunorubicin],EC50,[1]; [4],< 1 µM
same,EC50,[1]; [5],< 1 µM
same,% Inhibition at 10 μM in,P. falciparum,99.6%
same,EC50,[2]; [6],0.13 µM
same,EC50,[2]; [7],0.125 µM
same,experimentally determined to work,[2]; [8],Y (Y—yes (<=1uM ED50))
same,result of the 16 tested inhibitors in words (binding),[2],very strong binding
Cl.Cn1cc(C2=C(c3c4n(c5ccccc35)CCC(CN)C4)C(=O)NC2=O)c2ccccc21 (stereo not drawn) [Bisindolylmaleimide X],EC50,[1]; [9],1 to 10 µM
same,EC50,[1]; [10],1 to 10 µM
same,EC50,[2]; [11],1 to 10 µM
same,experimentally determined to work,[2]; [8],N
same,EC50,[2]; [12],1 to 10 µM
O=C(O)CCC(=O)Nc1ccc(S(=O)(=O)Nc2nccs2)cc1 [Succinylsulfathiazole],EC50,[1]; [4],> 40 µM
same,EC50,[1]; [5],> 40 µM
same,EC50,[2]; [6],> 40 µM
same,EC50,[2]; [7],> 40 µM
same,experimentally determined to work,[2]; [8],N
Oc1ccc(Cc2nc3c(Cc4ccccc4)nc(-c4ccc(O)cc4)cn3c2O)cc1 [Coelenterazine],EC50,[1]; [4],1 to 10 µM
same,EC50,[1]; [5],1 to 10 µM
same,EC50,[2]; [6],10 to 40 µM
same,EC50,[2]; [7],10 to 40 µM
same,experimentally determined to work,[2]; [8],N
Bisindolylmaleimide VII,EC50,[1]; [9],1 to 10 µM
same,EC50,[1]; [10],1 to 10 µM
same,EC50,[2]; [11],1 to 10 µM
same,experimentally determined to work,[2]; [8],N
same,EC50,[2]; [12],1 to 10 µM
CN1C[C@H](CNC(=O)OCc2ccccc2)C[C@@H]2c3cccc4c3c(cn4C)C[C@H]21 [Metergoline],% Inhibition at 10 μM in,P. falciparum,85.9%
same,EC50,P. falciparum,5.4 µM
O=CN1CCN(c2ccc(/C=C3\C(=O)Nc4ccccc43)cc2)CC1 [SU4984],EC50,[2]; [11],> 40 µM
same,experimentally determined to work,[2]; [8],N
CC[C@]1(O)C[C@@H]2CN(CCc3c([nH]c4ccccc34)[C@@](C(=O)OC)(c3cc4c(cc3OC)N(C)[C@H]3[C@@](O)(C(N)=O)[C@H](O)[C@]5(CC)C=CCN6CC[C@]43[C@@H]65)C2)C1 [Vindesine],% Inhibition at 10 μM in,P. falciparum,81.9%
Cc1c(C(=O)c2cccc3ccccc23)c2cccc3c2n1[C@H](CN1CCOCC1)CO3 [R-(+)-WIN55212-2],EC50,[1]; [9],10 to 40 µM
same,EC50,[1]; [10],10 to 40 µM
same,experimentally determined to work,[2],N
same,EC50,[2]; [11],10 to 40 µM
same,EC50,[2]; [12],10 to 40 µM
Cc1cc(C)c(/C=C2\C(=O)Nc3ccc(Cl)cc32)[nH]1 [SU5614],experimentally determined to work,[2]; [8],N
CN(C)S(=O)(=O)c1ccc2c(c1)/C(=C/c1cc3c([nH]1)CCCC3)C(=O)N2 [SU6656],"disassociation constant (Kd), KSHV protease",KSHV protease,verified to not bind
same,"disassociation constant (Kd), HSV protease",HSV protease,verified to not bind
same,"disassociation constant (Kd), CMV protease",CMV protease,verified to not bind
same,EC50,[2]; [11],> 40 µM
same,experimentally determined to work,[2]; [8],N
same,EC50,[2]; [12],10 µM
CN(Cc1cnc2nc(N)nc(N)c2n1)c1ccc(C(=O)N[C@@H](CCC(=O)O)C(=O)O)cc1 [Methotrexate],% Inhibition at 10 μM in,P. falciparum,98.4%
same,EC50,P. falciparum,0.05 µM
O=C(O)c1cc(/N=N/c2ccc(S(=O)(=O)Nc3ccccn3)cc2)ccc1O [Sulfasalazine],EC50,[1]; [4],> 40 µM
same,EC50,[1]; [5],> 40 µM
same,EC50,[2]; [6],> 40 µM
same,EC50,[2]; [7],> 40 µM
same,experimentally determined to work,[2]; [8],N
O=C(c1ccc(OCCN2CCCCC2)cc1)c1c(-c2ccc(O)cc2)sc2cc(O)ccc12 [Raloxifene],% Inhibition at 10 μM in,P. falciparum,97.1%
same,EC50,P. falciparum,< 0.5 µM
O=C1c2ccc3c4ccc5c6c(ccc(c7ccc(c2c37)C(=O)N1CCN1CCCCC1)c64)C(=O)N(CCN1CCCCC1)C5=O [PIPER],EC50,[1]; [9],10 to 40 µM
same,EC50,[1]; [10],10 to 40 µM
same,EC50,[2]; [11],10 to 40 µM
same,experimentally determined to work,[2]; [8],N
same,EC50,[2]; [12],10 to 40 µM
COc1ccc(C[C@H](N)C(=O)N[C@H]2[C@@H](O)[C@H](n3cnc4c(N(C)C)ncnc43)O[C@@H]2CO)cc1 [Puromycin],% Inhibition at 10 μM in,P. falciparum,98.9%
enfuvirtide,EC50,[3]; HR1 Wild-type,0.012 µg/mL
same,EC50,[3]; HR1 mutation N42T + N43K,0.388 µg/mL
same,EC50,[3]; HR1 mutation N42T + N43S,0.727 µg/mL
same,EC50,[3]; HR1 mutation N42T,0.045 µg/mL
same,EC50,[3]; HR1 mutation V38A + N42D,1.685 µg/mL
same,EC50,[3]; HR1 mutation V38A + N42T,1.782 µg/mL
same,EC50,[3]; HR1 mutation V38A,0.188 µg/mL
same,EC50,[3]; HR1 mutation V38E + N42S,6.156 µg/mL
COc1ccc(CCN2CCC(Nc3nc4ccccc4n3Cc3ccc(F)cc3)CC2)cc1 [Astemizole],% Inhibition at 10 μM in,P. falciparum,97.6%
Cc1c[nH]c(/C=C2\C(=O)Nc3ccccc32)c1CCC(=O)O [SU5402],EC50,[2]; [11],> 40 µM
same,experimentally determined to work,[2]; [8],N
Nc1nc2c(ncn2COCCO)c(=O)[nH]1 [acylovir],effectiveness after passage for several cycles with both acylovir and TMPyP4,HSV-1 strain F,complete resistance to acylovir occurs
